From patent US20030104487A1, “Neuropeptide receptor and uses thereof” (priority 2001, published 2003) come the findings set out here.

Assay [1] has as its target T1, EBI2 (Homo sapiens, UniProt P32249). Briefly: Response of EBI2 to CRF-family neuropeptides (test not specified). Particulars: general statement, no test named.
Assay [2] addresses T1, EBI2. Briefly: Functional assay measuring intracellular calcium mobilisation (FLIPR). In kind it is cell-based. The note with it: EBI2-expressing cells compared to mock-transfected cells; FIG. 1. The method, then:
5×10^6 cells of a suitable host cell line, chosen to express a low number of endogenous receptors (e.g. HEK293 or CHO-K1) and engineered to stably express certain Gα proteins (e.g. mouse Gα15 (Wilkie, T. M. et al (1991) Proc. Natl. Acad. Sci. 88, 10049-10053), a chimeric Gqi5/Gqo5 α-subunit, or human Gα16 (Amatruda, TT 3rd et al (1991) Proc. Natl. Acad. Sci. 88, 5587-5591)), were transiently transfected with 7.5 μg of cDNA encoding EBI2 in a suitable mammalian cell expression vector, or vector alone, using Lipofectamine Plus® reagent (Gibco BRL) as per the manufacturer's protocol. […]
Fluorescence Imaging Plate Reader (FLIPR®) technology was employed as a means to detect activation of EBI2 by various potential GPCR agonists.
Cells were transfected as described in Example 3. […] The FLIPR® processing involved reading the fluorescence for all samples for 2 minutes; during this time the fluorescence baseline was determined […]. The desired amount of compounds (i.e. potential GPCR agonists) was then automatically transferred to the wells and the fluorescence was continuously monitored for the remainder of the time. […]
Compounds capable of acting as agonists for the receptor were identified by them causing a transient rise in fluorescence, and therefore in intracellular calcium, in the cells.

Assay [3] has as its target T1, EBI2. Briefly: β-Arrestin assay (GFP-β-arrestin clustering/internalisation). Further details: expressed in transfected cells; host or cells: HEK 293. In kind it is cell-based. Particulars: HEK 293 cells transiently expressing EBI2 and GFP-β-arrestin; ligand ~500 nM, 30 minutes; confocal microscopy, FIG. 2. The text has this: General principle of the assay: Agonist binding to the GPCR activates G-proteins and ultimately results in second messenger cascades to elicit a physiological response. In most cases receptors occupied by agonists undergo rapid phosphorylation by GPCR Kinases (GRKs). This in turn allows β-arrestin to bind to the GPCR preventing any further interaction between the GPCR and G-protein. Internalisation of the GPCR via clathrin coated pits follows as a result of arrestin-clathrin interactions (Krupnick, J. G. and Benovic, J. L. (1998) Annual Review of Pharmacological Toxicology, 38, 289-319). By employing fusion constructs of green fluorescent protein (GFP)-β arrestin, this receptor desensitisation can be visualised using confocal microscopy. In the absence of receptor activation in a transfected cell line, fluorescence associated with the β-arrestin-GFP is evenly distributed throughout the cytoplasm. Upon receptor activation by an agonist, cytosolic β-arrestin-GFP translocates to the cell surface reflecting the interaction with the activated receptor (Evans et al. 2001). […]
The receptor EBI2 and GFP-β-arrestin mammalian expression constructs were transiently transfected in to HEK 293 cells. […] The cells were then analysed using both confocal microscopy and the Cellomics ArrayScanII methodologies in order to identify internalisation of the ligand receptor GFP-β-arrestin complex. […]

T1 sequence (P32249 whole entry): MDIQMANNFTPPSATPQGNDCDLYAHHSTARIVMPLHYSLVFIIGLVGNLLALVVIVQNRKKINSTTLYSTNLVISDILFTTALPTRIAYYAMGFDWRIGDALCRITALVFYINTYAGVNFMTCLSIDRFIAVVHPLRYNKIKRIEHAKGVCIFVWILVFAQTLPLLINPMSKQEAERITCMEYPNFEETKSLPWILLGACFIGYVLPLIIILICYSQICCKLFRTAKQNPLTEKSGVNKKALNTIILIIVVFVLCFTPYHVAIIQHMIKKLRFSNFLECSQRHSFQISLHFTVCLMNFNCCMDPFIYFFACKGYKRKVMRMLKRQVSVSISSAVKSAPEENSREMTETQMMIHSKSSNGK

As to `CC[C@H](C)[C@H](NC(=O)[C@@H](NC(=O)[C@H](CC(=O)O)NC(=O)[C@H](CC(C)C)NC(=O)[C@H](CC(C)C)NC(=O)[C@H](CC(C)C)NC(=O)[C@H](CCCNC(=N)N)NC(=O)[C@H](CC(N)=O)NC(=O)[C@H](CC(N)=O)NC(=O)[C@H](C)NC(=O)[C@H](C)NC(=O)[C@H](CCC(N)=O)NC(=O)[C@H](CCC(N)=O)NC(=O)[C@H](CCCCN)NC(=O)[C@H](CCC(=O)O)NC(=O)[C@H](CCCCN)NC(=O)[C@H](CCC(=O)O)NC(=O)[C@H](CCC(N)=O)NC(=O)[C@H](CCCCN)NC(=O)[C@H](CCC(=O)O)NC(=O)[C@@H](NC(=O)[C@H](CCC(=O)O)NC(=O)[C@@H](NC(=O)[C@H](CCSC)NC(=O)[C@H](CCCCN)NC(=O)[C@H](CCCNC(=N)N)NC(=O)[C@H](CC(C)C)NC(=O)[C@H](CC(C)C)NC(=O)[C@H](CCC(=O)O)NC(=O)[C@H](CC(C)C)NC(=O)[C@H](CO)NC(=O)[C@H](CC(C)C)NC(=O)[C@H](CC(=O)O)NC(=O)[C@@H](NC(=O)[C@H](CO)NC(=O)[C@@H](NC(=O)[C@@H]1CCCN1C(=O)[C@@H]1CCCN1C(=O)CNC(=O)[C@@H]1CCC(=O)N1)[C@@H](C)CC)[C@@H](C)CC)[C@@H](C)CC)[C@@H](C)CC)[C@@H](C)O)C(N)=O` [sauvagine], at EBI2 [1], the “receptor responds to the peptide” value is “responds”.
For the molecule urotensin I, on EBI2 [1], the “receptor responds to the peptide” value is given as “responds”. Moreover, the “fluorescence change over time (transient rise in intracellular calcium)” value on EBI2 [2] was “response of EBI2-expressing cells to urotensin I”. The “clustering of GFP-β-arrestin complex on the cell surface” value at EBI2 [3] was “Clustering of the fluorescent GFP-β-arrestin complex is clearly observed”.
